Laboratory results: US20130029989A1, “TOPICAL TREATMENTS FOR PAIN” (The Royal Institution for the Advancement of …, priority 2010, published 2013)

Tests used:
Assay type in all cases: in vivo, rat
CPIP rats [1] = assay: Mechanical allodynia (von Frey paw withdrawal threshold) after topical ointment in CPIP rats (model of CRPS-I); conditions: for anti-allodynic effect (PWT to von Frey hair stimulation): single drug; for effectiveness of the agent when administered topically in the combinations: apraclonidine 0.005%, clonidine 0.0075%, lisofylline 0.0078%-0.075%, pentoxifylline 0.3 or 0.6%, linsidomine 0.4%
Procedure: Ointment type analgesic formulations containing the above-mentioned drugs were prepared according to standard pharmaceutical procedures. The ointments were formulated using a composite, water-soluble polyethylene glycol base system employing carbowax (PEG 3350) and PEG 400 in the ratio of 60:40 respectively. The water-soluble base system was selected due to its non-sticky nature. Briefly, the required amounts of the active ingredients were first weighed out and then added to the already molten base in decreasing order of their melting points, and stirred well. After uniform melting, the formulation was brought to room temperature to ensure proper solidification. A standard amount of 150 mg (mean±SEM=150.88+2.7 mg) of the ointment was used for all rat hind paw applications throughout the experimental procedure, and half this amount for mouse hind paw application.
(§1) Chronic post-ischemia pain (CPIP) was generated following exposure to prolonged hind paw ischemia and reperfusion (Coderre et al., Pain, 112(1):94-105, 2004). Briefly, rats were anesthetized over a 3 h period with a bolus (55 mg/kg, i.p.) followed by chronic i.p. infusion of sodium pentobarbital for 2 h at a rate of 0.15 mL/h. After induction of anesthesia, a Nitrile 70 Durometer O-ring (O-rings West, Seattle, Wash.) with 5.5 mm internal diameter was placed around the rat's left hind limb proximal to the ankle joint. The tight-fitting O-rings produce a complete blockade of arterial blood flow as measured using laser Doppler flowmetry. The ring was then left in place for 3 h. The termination of sodium pentobarbital anesthesia was timed so that the rats recovered fully within 30-60 min following reperfusion. Rats were tested between 2 and 14 days post-IR injury.
(§2) The plantar surface of the ipsilateral hind paw was tested for mechanical allodynia in CPIP and CCI rats. Nylon monofilaments were applied in either ascending (after negative response) or descending (after positive response) force as necessary to determine the filament closest to the threshold of response. Each filament was applied for 10 s or until a flexion reflex occurred. The minimum stimulus intensity was 1 g and the maximum was 15 g. Based on the response pattern, and the force of the final filament (5th stimulus after first direction change), the 50% threshold (grams) was calculated as (10[Xf+kδ])/10000 where Xf=filament number of the final von Frey hair used, k=value for the pattern of positive/negative responses and δ=mean difference in log unit between stimuli (here, δ=0.220, for more details see Chaplan et al., J. Neurosci. Methods, 53(1):55-63, 1994). Mechanical sensitivities were assessed prior to and following several pharmacological treatments.
The topical formulations containing a nitric oxide donor, an α2-adrenergic agonist or a phosphatidic acid inhibitor were tested for their anti-allodynic effects either singly or in combination with each other in definite proportions at concentrations for single agents selected from the published literature in different animal models of pain. Accordingly, the rats received 150 mg of the respective ointment with the first half on the plantar aspect of their hind paws followed by the second half applied on the dorsal surface; in both cases by uniform gentle application using fingers.
In separate groups of rats, formulations containing pentoxifylline or lisofylline were tested in specific drug combinations with constant percentage amounts of clonidine, linsidomine, SNAP or apraclonidine. […] Accordingly, the formulations tested in the combination trials included clonidine (0.0075% W/W) with pentoxifylline (0.3, 0.6 and 1.2% WAN), linsidomine (0.4% W/W) with pentoxifylline (0.075, 0.15 and 0.3% W/W), linsidomine (0.4% W/W) with lisofylline (0.03175, 0.0625 and 0.075% W/W), SNAP (0.0625% W/W) with lisofylline (0.008, 0.015, 0.033 and 0.063% W/W) and apraclonidine (0.005% W/W) with lisofylline (0.0078, 0.0156 and 0.0313% W/W). […]

CPIP rats [2] = assay: Laser Doppler post-occlusive reactive hyperemia in CPIP rats, systemic pentoxifylline; conditions: 25 mg/kg i.p.
Procedure: as §1, with “The termination of sodium pentobarbital anesthesia was timed so that the rats recovered fully within 30-60 min following reperfusion. Rats were tested between 2 and 14 days post-IR injury.” left out
Plantar blood flow and post-occlusive reactive hyperemia were measured using a laser Doppler perfusion and temperature monitor (DRT4, Moor Instruments, Wilmington, Del.) to assess microvascular function (Morales et al., Microvasc. Res., 69(1-2):17-23, 2005). […] Body temperature was monitored through a rectal thermometer coupled to a heating pad (FHC, Bowdoinham, Me.), and was maintained between 37.5° C. and 39.0° C. throughout the experiment. The plantar blood flow of the ipsilateral hind paw was monitored using a laser-emitting probe placed in between the tori pads of the hind paw, along the midline. […]

sham rats = assay: Laser Doppler post-occlusive reactive hyperemia in sham rats, systemic pentoxifylline; conditions: 25 mg/kg i.p.
Procedure: Plantar blood flow and post-occlusive reactive hyperemia were measured using a laser Doppler perfusion and temperature monitor (DRT4, Moor Instruments, Wilmington, Del.) to assess microvascular function (Morales et al., Microvasc. Res., 69(1-2):17-23, 2005). Briefly, rats (n=6 for each group) were anesthetized with bolus (1 g/kg) and maintenance doses (200 mg/kg prn) of urethane, and placed in the prone position. Body temperature was monitored through a rectal thermometer coupled to a heating pad (FHC, Bowdoinham, Me.), and was maintained between 37.5° C. and 39.0° C. throughout the experiment. The plantar blood flow of the ipsilateral hind paw was monitored using a laser-emitting probe placed in between the tori pads of the hind paw, along the midline. […] At the rate of one sample per second, an initial 10 minute baseline blood flux was recorded, followed by a 2 minute occlusion induced by pressurizing and inflating a tight fitting loop of Tygon® R 3603 tubing (outside diameter=2.38 mm, inside diameter=0.79 mm, wall thickness=0.79 mm) connected to an air-filled pump-driven 60 mL syringe (Model 11, Harvard Apparatus, Montreal, QC), creating a tourniquet around the ankle joint. […] Post-occlusive reactive hyperemia was monitored by continuously sampling flux at the rate of 1/sec for 2 min following the onset of reperfusion. […]

CPIP rats [3] = assay: Mechanical allodynia (von Frey PWT) in CPIP rats after systemic pentoxifylline; conditions: vs vehicle
Procedure: as §1, with “The termination of sodium pentobarbital anesthesia was timed so that the rats recovered fully within 30-60 min following reperfusion. Rats were tested between 2 and 14 days post-IR injury.” left out
as §2, with “Nylon monofilaments were applied in either ascending (after negative response) or descending (after positive response) force as necessary to determine the filament closest to the threshold of response. Each filament was applied for 10 s or until a flexion reflex occurred. The minimum stimulus intensity was 1 g and the maximum was 15 g.” left out

In the case of CC(=O)N[C@H](C(=O)O)C(C)(C)SN=O [SNAP, S-nitroso-N-acetyl-penicillamine], the “anti-allodynic effect (PWT to von Frey hair stimulation)” value (from here on “anti-allodynic effect”) (CPIP rats [1]; topical ipsilateral, 0.0625% W/W (lowest)) is reported as “inactive” and the “anti-allodynic effect” value (CPIP rats [1]; topical ipsilateral, all concentrations except the lowest (0.125, 0.25 and 0.5% W/W)) is reported as “significant effects”.
In the case of Nc1cc(Cl)c(N=C2NCCN2)c(Cl)c1 [apraclonidine], the “effectiveness of the agent when administered topically in the combinations” value (“effectiveness of the agent” below) (CPIP rats [1]) is reported as “highly effective”, the “anti-allodynic effect” value (CPIP rats [1]; topical ipsilateral, 0.005% W/W (lowest)) is reported as “inactive” and the “anti-allodynic effect” value (CPIP rats [1]; topical ipsilateral, all concentrations except the lowest (0.01, 0.02 and 0.04% W/W)) is reported as “effective against mechanical allodynia”.
Clc1cccc(Cl)c1N=C1NCCN1 [clonidine] was tested, and the “effectiveness of the agent” value (CPIP rats [1]) was “highly effective”, the “anti-allodynic effect” value (CPIP rats [1]; topical ipsilateral, 0.0075% W/W) was “inactive” and the “anti-allodynic effect” value (CPIP rats [1]; topical ipsilateral, 0.03% W/W) was “significant anti-allodynic effects”. The “anti-allodynic effect” value (CPIP rats [1]; topical ipsilateral, 0.06% W/W) was “significant anti-allodynic effects”.
With [NH-]c1c[n+](N2CCOCC2)no1 [linsidomine] the “effectiveness of the agent” value (CPIP rats [1]) was “highly effective”, the “anti-allodynic effect” value (CPIP rats [1]; topical ipsilateral, 0.4% W/W) was “inactive” and the “anti-allodynic effect” value (CPIP rats [1]; topical ipsilateral, 0.8% W/W, post drug vs pre-drug) was “significantly different from their pre-drug values”. The “anti-allodynic effect” value (CPIP rats [1]; topical ipsilateral, 1.6% W/W, post drug vs pre-drug) was “significantly different from their pre-drug values”.
For C[C@@H](O)CCCCn1c(=O)c2c(ncn2C)n(C)c1=O [lisofylline], the “effectiveness of the agent” value (CPIP rats [1]) was “highly effective”, the “anti-allodynic effect” value (CPIP rats [1]; topical ipsilateral, lowest concentration 0.063% W/W) was “inactive” and the “anti-allodynic effect” value (CPIP rats [1]; topical ipsilateral, the three higher concentrations (0.09, 0.125 and 0.25% W/W)) was “only the lowest concentration (0.063% W/W) was observed to be inactive”.
For CC(=O)CCCCn1c(=O)c2c(ncn2C)n(C)c1=O [pentoxifylline], the “effectiveness of the agent” value (CPIP rats [1]) was “highly effective”, the “anti-allodynic effect” value (CPIP rats [1]; topical ipsilateral hind paw, 5% W/W, 45 min post-application) was “significantly attenuated mechanical allodynia” and the “anti-allodynic effect” value (CPIP rats [1]; topical ipsilateral, 0.6% W/W) was “devoid of any effect”. The “anti-allodynic effect” value (CPIP rats [1]; topical ipsilateral, 1.2% W/W) was “devoid of any effect”, the “effect on delayed post-occlusive reactive hyperemia (microvascular dysfunction)” value (CPIP rats [2]) was “reversed” and the “effect on normal post-occlusive reactive hyperemia” value (sham rats) was “no effect”. For the same compound, the “allodynia (PWT to von Frey hair stimulation)” value (CPIP rats [3]; 25 mg/kg) was “attenuated allodynia” and the “allodynia (PWT to von Frey hair stimulation)” value (CPIP rats [3]; 50 mg/kg) was “attenuated allodynia”.
